This is an account of results in the OligoGym collection.

HELM strings list units from the 5' end as sugar, base in round brackets, then linkage (d deoxyribose, r ribose, m 2'-O-methyl, p phosphodiester). Strings are as the collection lists them, not checked against the first reports. ss, as = sense and antisense strand; [fl2r] = 2'-fluoro
Also: test system not given here.

For this series the following is noted: siRNA.
Regarding “RNA1{r(A)p.r(G)p.[fl2r](U)p.r(A)p.r(A)p.r(U)p.r(C)p.r(C)p.r(G)p.r(G)p.r(A)p.r(C)p.r(U)p.[fl2r](C)p.r(A)p.r(A)p.r(C)p.r(U)p.r(C)p.r(T)p.r(T)}|RNA2{r(G)p.r(A)p.r(G)p.r(U)p.[fl2r](U)p.r(G)p.r(A)p.r(G)p.r(U)p.r(C)p.r(C)p.r(G)p.r(G)p.r(A)p.r(U)p.[fl2r](U)p.r(A)p.r(C)p.r(U)p.r(T)p.r(T)}$$$RNA1{StrandType:ss}|RNA2{StrandType:as}$”, the target mRNA knockdown is 68%.
The result for “RNA1{r(A)p.r(G)p.[fl2r](U)p.r(A)p.r(A)p.r(U)p.r(C)p.r(C)p.r(G)p.r(G)p.r(A)p.r(C)p.r(U)p.r(C)p.r(A)p.r(A)p.r(C)p.r(U)p.r(C)p.r(T)p.r(T)}|RNA2{r(G)p.r(A)p.r(G)p.r(U)p.r(U)p.r(G)p.r(A)p.r(G)p.r(U)p.r(C)p.r(C)p.r(G)p.r(G)p.r(A)p.r(U)p.[fl2r](U)p.r(A)p.r(C)p.r(U)p.r(T)p.r(T)}$$$RNA1{StrandType:ss}|RNA2{StrandType:as}$” reads 69%.
The result for “RNA1{r(A)p.r(G)p.m(A)p.r(G)p.r(A)p.r(G)p.r(G)p.m(U)p.r(G)p.r(G)p.r(A)p.r(G)p.r(G)p.m(U)p.r(A)p.r(U)p.r(C)p.r(U)p.r(C)p.r(T)p.r(T)}|RNA2{r(G)p.r(A)p.r(G)p.r(A)p.m(U)p.r(A)p.r(C)p.r(C)p.r(U)p.r(C)p.m(C)p.r(A)p.r(C)p.r(C)p.r(U)p.m(C)p.r(U)p.r(C)p.r(U)p.r(T)p.r(T)}$$$RNA1{StrandType:ss}|RNA2{StrandType:as}$” reads 87%; that for “RNA1{r(A)p.r(G)p.r(A)p.m(U)p.r(G)p.r(U)p.r(U)p.r(C)p.r(U)p.r(C)p.r(G)p.m(U)p.r(A)p.r(A)p.r(G)p.r(G)p.r(A)p.r(C)p.r(G)p.r(T)p.r(T)}|RNA2{r(C)p.r(G)p.r(U)p.r(C)p.r(C)p.r(U)p.m(U)p.r(A)p.r(C)p.r(G)p.r(A)p.r(G)p.r(A)p.r(A)p.m(C)p.r(A)p.r(U)p.r(C)p.r(U)p.r(T)p.r(T)}$$$RNA1{StrandType:ss}|RNA2{StrandType:as}$”, 60%.
The result for “RNA1{r(A)p.r(G)p.r(A)p.r(A)p.r(A)p.m(C)p.r(G)p.m(C)p.r(A)p.r(G)p.m(U)p.r(A)p.r(A)p.m(U)p.m(C)p.m(C)p.r(G)p.r(G)p.r(A)p.r(T)p.r(T)}|RNA2{m(U)p.m(C)p.m(C)p.r(G)p.r(G)p.r(A)p.m(U)p.m(U)p.r(A)p.m(C)p.m(U)p.r(G)p.m(C)p.r(G)p.m(U)p.m(U)p.m(U)p.m(C)p.m(U)p.r(T)p.r(T)}$$$RNA1{StrandType:ss}|RNA2{StrandType:as}$” reads 80%; that for “RNA1{r(A)p.r(G)p.r(A)p.r(A)p.r(A)p.r(A)p.r(G)p.m(C)p.r(A)p.r(G)p.r(C)p.r(G)p.r(A)p.m(U)p.r(A)p.r(C)p.r(G)p.r(C)p.r(U)p.r(T)p.r(T)}|RNA2{r(A)p.r(G)p.r(C)p.r(G)p.r(U)p.r(A)p.r(U)p.r(C)p.r(G)p.r(C)p.m(U)p.r(G)p.r(C)p.r(U)p.r(U)p.r(U)p.r(U)p.r(C)p.r(U)p.r(T)p.r(T)}$$$RNA1{StrandType:ss}|RNA2{StrandType:as}$”, 68%; that for “RNA1{r(A)p.r(G)p.r(A)p.r(A)p.r(A)p.r(A)p.r(G)p.r(C)p.r(A)p.r(G)p.r(C)p.r(G)p.r(A)p.m(U)p.r(A)p.r(C)p.r(G)p.r(C)p.r(U)p.r(T)p.r(T)}|RNA2{r(A)p.r(G)p.r(C)p.r(G)p.r(U)p.r(A)p.r(U)p.r(C)p.r(G)p.r(C)p.r(U)p.r(G)p.r(C)p.r(U)p.r(U)p.r(U)p.r(U)p.r(C)p.r(U)p.r(T)p.r(T)}$$$RNA1{StrandType:ss}|RNA2{StrandType:as}$”, 69%.
As for “RNA1{r(A)p.r(G)p.r(A)p.r(A)p.r(A)p.r(C)p.r(G)p.m(C)p.r(A)p.r(G)p.m(U)p.m(A)p.r(A)p.r(U)p.r(C)p.r(C)p.r(G)p.r(G)p.r(A)p.r(T)p.r(T)}|RNA2{r(U)p.r(C)p.r(C)p.r(G)p.r(G)p.r(A)p.r(U)p.m(U)p.r(A)p.r(C)p.m(U)p.r(G)p.r(C)p.r(G)p.r(U)p.r(U)p.r(U)p.r(C)p.r(U)p.r(T)p.r(T)}$$$RNA1{StrandType:ss}|RNA2{StrandType:as}$”, the target mRNA knockdown stood at 78%.
As to “RNA1{r(A)p.r(G)p.r(A)p.r(A)p.r(A)p.r(C)p.r(G)p.m(C)p.r(A)p.r(G)p.m(U)p.r(A)p.r(A)p.r(U)p.r(C)p.r(C)p.r(G)p.r(G)p.r(A)p.r(T)p.r(T)}|RNA2{r(U)p.r(C)p.r(C)p.r(G)p.r(G)p.r(A)p.r(U)p.m(U)p.r(A)p.r(C)p.m(U)p.r(G)p.r(C)p.r(G)p.r(U)p.r(U)p.r(U)p.r(C)p.r(U)p.r(T)p.r(T)}$$$RNA1{StrandType:ss}|RNA2{StrandType:as}$”, the target mRNA knockdown turned out to be 81%.
In the case of “RNA1{r(A)p.r(G)p.r(A)p.r(A)p.r(A)p.r(C)p.r(G)p.r(C)p.r(A)p.r(G)p.m(U)p.m(A)p.r(A)p.r(U)p.r(C)p.r(C)p.r(G)p.r(G)p.r(A)p.r(T)p.r(T)}|RNA2{r(U)p.r(C)p.r(C)p.r(G)p.r(G)p.r(A)p.r(U)p.m(U)p.r(A)p.r(C)p.r(U)p.r(G)p.r(C)p.r(G)p.r(U)p.r(U)p.r(U)p.r(C)p.r(U)p.r(T)p.r(T)}$$$RNA1{StrandType:ss}|RNA2{StrandType:as}$” it was 85%; in that of “RNA1{r(A)p.r(G)p.r(A)p.r(A)p.r(A)p.r(C)p.r(G)p.r(C)p.r(A)p.r(G)p.m(U)p.r(A)p.r(A)p.r(U)p.r(C)p.r(C)p.r(G)p.r(G)p.r(A)p.r(T)p.r(T)}|RNA2{r(U)p.r(C)p.r(C)p.r(G)p.r(G)p.r(A)p.r(U)p.r(U)p.r(A)p.r(C)p.m(U)p.r(G)p.r(C)p.r(G)p.r(U)p.r(U)p.r(U)p.r(C)p.r(U)p.r(T)p.r(T)}$$$RNA1{StrandType:ss}|RNA2{StrandType:as}$”, 82%; in that of “RNA1{r(A)p.r(G)p.r(A)p.r(A)p.r(G)p.[fl2r](U)p.r(A)p.r(C)p.[fl2r](C)p.r(A)p.r(G)p.r(G)p.r(A)p.r(G)p.r(G)p.r(C)p.r(G)p.r(U)p.r(U)p.r(T)p.r(T)}|RNA2{r(A)p.r(A)p.r(C)p.r(G)p.r(C)p.r(C)p.r(U)p.r(C)p.r(C)p.[fl2r](U)p.r(G)p.r(G)p.[fl2r](U)p.r(A)p.r(C)p.r(U)p.r(U)p.r(C)p.r(U)p.r(T)p.r(T)}$$$RNA1{StrandType:ss}|RNA2{StrandType:as}$”, 57%.
In the case of “RNA1{r(A)p.r(G)p.r(A)p.r(A)p.r(G)p.[fl2r](U)p.r(A)p.r(C)p.r(C)p.r(A)p.r(G)p.r(G)p.r(A)p.r(G)p.r(G)p.r(C)p.r(G)p.r(U)p.r(U)p.r(T)p.r(T)}|RNA2{r(A)p.r(A)p.r(C)p.r(G)p.r(C)p.r(C)p.r(U)p.r(C)p.r(C)p.[fl2r](U)p.r(G)p.r(G)p.r(U)p.r(A)p.r(C)p.r(U)p.r(U)p.r(C)p.r(U)p.r(T)p.r(T)}$$$RNA1{StrandType:ss}|RNA2{StrandType:as}$” it was 60%; in that of “RNA1{r(A)p.r(G)p.r(A)p.r(A)p.r(G)p.m(U)p.r(A)p.r(C)p.m(C)p.r(A)p.r(G)p.r(G)p.r(A)p.r(G)p.m(G)p.r(C)p.r(G)p.r(U)p.r(U)p.r(T)p.r(T)}|RNA2{r(A)p.r(A)p.r(C)p.r(G)p.r(C)p.r(C)p.r(U)p.r(C)p.r(C)p.m(U)p.r(G)p.r(G)p.m(U)p.r(A)p.r(C)p.r(U)p.r(U)p.r(C)p.r(U)p.r(T)p.r(T)}$$$RNA1{StrandType:ss}|RNA2{StrandType:as}$”, 68%.
In the case of “RNA1{r(A)p.r(G)p.r(A)p.r(A)p.r(G)p.m(U)p.r(A)p.r(C)p.r(C)p.r(A)p.r(G)p.r(G)p.r(A)p.r(G)p.r(G)p.r(C)p.r(G)p.r(U)p.r(U)p.r(T)p.r(T)}|RNA2{r(A)p.r(A)p.r(C)p.r(G)p.r(C)p.r(C)p.r(U)p.r(C)p.r(C)p.r(U)p.r(G)p.r(G)p.m(U)p.r(A)p.r(C)p.r(U)p.r(U)p.r(C)p.r(U)p.r(T)p.r(T)}$$$RNA1{StrandType:ss}|RNA2{StrandType:as}$” it was 69%; in that of “RNA1{r(A)p.r(G)p.r(A)p.r(A)p.r(G)p.r(G)p.r(A)p.m(C)p.m(U)p.r(A)p.m(C)p.m(U)p.r(A)p.r(A)p.m(C)p.m(C)p.m(U)p.m(C)p.m(C)p.r(T)p.r(T)}|RNA2{r(G)p.r(G)p.r(A)p.r(G)p.r(G)p.r(U)p.r(U)p.r(A)p.r(G)p.r(U)p.r(A)p.r(G)p.r(U)p.r(C)p.r(C)p.r(U)p.r(U)p.r(C)p.r(U)p.r(T)p.r(T)}$$$RNA1{StrandType:ss}|RNA2{StrandType:as}$”, 80%.
The substance “RNA1{r(A)p.r(G)p.r(A)p.r(A)p.r(G)p.r(G)p.r(A)p.r(C)p.m(U)p.r(A)p.r(C)p.m(U)p.r(A)p.r(A)p.r(C)p.r(C)p.m(U)p.r(C)p.r(C)p.r(T)p.r(T)}|RNA2{r(G)p.r(G)p.r(A)p.r(G)p.r(G)p.m(U)p.m(U)p.r(A)p.r(G)p.m(U)p.r(A)p.r(G)p.m(U)p.r(C)p.r(C)p.m(U)p.m(U)p.r(C)p.m(U)p.r(T)p.r(T)}$$$RNA1{StrandType:ss}|RNA2{StrandType:as}$” yielded a target mRNA knockdown of 49%.
The result for “RNA1{r(A)p.r(G)p.r(A)p.r(A)p.r(G)p.r(G)p.r(A)p.r(C)p.m(U)p.r(A)p.r(C)p.m(U)p.r(A)p.r(A)p.r(C)p.r(C)p.r(U)p.r(C)p.r(C)p.r(T)p.r(T)}|RNA2{r(G)p.r(G)p.r(A)p.r(G)p.r(G)p.r(U)p.r(U)p.r(A)p.r(G)p.m(U)p.r(A)p.r(G)p.r(U)p.r(C)p.r(C)p.r(U)p.r(U)p.r(C)p.r(U)p.r(T)p.r(T)}$$$RNA1{StrandType:ss}|RNA2{StrandType:as}$” reads 81%; that for “RNA1{r(A)p.r(G)p.r(A)p.r(C)p.[fl2r](U)p.r(A)p.r(A)p.r(G)p.r(C)p.r(C)p.[fl2r](C)p.r(A)p.r(A)p.r(A)p.r(A)p.r(G)p.r(G)p.r(G)p.r(C)p.r(T)p.r(T)}|RNA2{r(G)p.r(C)p.r(C)p.r(C)p.r(U)p.r(U)p.r(U)p.[fl2r](U)p.r(G)p.r(G)p.r(G)p.r(C)p.r(U)p.[fl2r](U)p.r(A)p.r(G)p.r(U)p.r(C)p.r(U)p.r(T)p.r(T)}$$$RNA1{StrandType:ss}|RNA2{StrandType:as}$”, 45%; that for “RNA1{r(A)p.r(G)p.r(A)p.r(C)p.[fl2r](U)p.r(A)p.r(A)p.r(G)p.r(C)p.r(C)p.r(C)p.r(A)p.r(A)p.r(A)p.r(A)p.r(G)p.r(G)p.r(G)p.r(C)p.r(T)p.r(T)}|RNA2{r(G)p.r(C)p.r(C)p.r(C)p.r(U)p.r(U)p.r(U)p.r(U)p.r(G)p.r(G)p.r(G)p.r(C)p.r(U)p.[fl2r](U)p.r(A)p.r(G)p.r(U)p.r(C)p.r(U)p.r(T)p.r(T)}$$$RNA1{StrandType:ss}|RNA2{StrandType:as}$”, 47%.
